Measurements reported in patent US7928134B2, “5-aryl-4,5-dihydro-(1H)-pyrazolines as cannabinoid CB1 receptor agonists” (Solvay Pharmaceuticals B.V., priority 2007, dated 2011).

What was measured:
[1] = target: T1, human cannabinoid CB2 receptor (Homo sapiens, UniProt P34972); assay: In vitro affinity for cannabinoid-CB2 receptors ([3H]CP-55,940 radioligand binding); details: membranes of CHO cells stably transfected with human CB2, read-out: receptor binding Human CB2 affinity pKi (converted)
T1 construct: expressed in transfected cells; host or cells: CHO cells, membrane preparations
Procedure: In Vitro Affinity for Cannabinoid-CB2 Receptors
(§1) The affinity of the compounds of the invention for cannabinoid CB2 receptors can be determined using membrane preparations of CHO cells in which the human cannabinoid CB2 receptor is stably transfected in conjunction with [^3H]CP-55,940 as radioligand. After incubation of a freshly prepared cell membrane preparation with the [^3H]-ligand, with or without addition of one or more compounds of the invention, separation of bound and free ligand is performed by filtration over glassfiber filters. Radioactivity on the filter is measured by liquid scintillation counting.

[2] = target: T2, human cannabinoid CB1 receptor (Homo sapiens, UniProt P21554); assay: In vitro affinity for cannabinoid-CB1 receptors ([3H]CP-55,940 radioligand binding); details: membranes of CHO cells stably transfected with human CB1, read-out: receptor binding Human CB1 affinity pKi (converted)
T2 construct: expressed in transfected cells; host or cells: Chinese hamster ovary (CHO) cells, membrane preparations
Procedure: In Vitro Affinity for Cannabinoid-CB1 Receptors
as §1, with “CB1” for “CB2”, “Chinese hamster ovary (CHO)” for “CHO”

human CB1 receptor = target: T3, human CB1 receptor (Homo sapiens, UniProt P21554); assay: In vitro cannabinoid-CB1 receptor (ant)agonism ([3H]-arachidonic acid release in CHO cells); type: cell-based; details: human CB1 receptor cloned in CHO cells; for EC50: read-out: Functional CB1 assays Human CB1 agonism pEC50 (converted)
T3 construct: expressed in transfected cells; host or cells: CHO cells
Procedure: In Vitro Cannabinoid-CB1 Receptor (Ant)Agonism
In vitro CB1 receptor antagonism/agonism can be assessed with the human CB1 receptor cloned in CHO cells. CHO cells are grown in a Dulbecco's Modified Eagle's medium (DMEM) culture medium, supplemented with 10% heat-inactivated fetal calf serum. Medium is aspirated and replaced by DMEM, without fetal calf serum, but containing [^3H]-arachidonic acid and incubated overnight in a cell culture stove (5% CO2/95% air; 37° C.; water-saturated atmosphere). During this period [^3H]-arachidonic acid is incorporated in membrane phospholipids. On the test day, medium is aspirated and cells are washed three times using 0.5 ml DMEM, containing 0.2% bovine serum albumin (BSA). CB1 agonist stimulation leads to activation of PLA2 followed by release of [^3H]-arachidonic acid into the medium. This CB1 agonist-induced release is concentration-dependently antagonized by CB1 receptor antagonists, such as for example rimonabant.

T1 sequence (P34972 whole entry): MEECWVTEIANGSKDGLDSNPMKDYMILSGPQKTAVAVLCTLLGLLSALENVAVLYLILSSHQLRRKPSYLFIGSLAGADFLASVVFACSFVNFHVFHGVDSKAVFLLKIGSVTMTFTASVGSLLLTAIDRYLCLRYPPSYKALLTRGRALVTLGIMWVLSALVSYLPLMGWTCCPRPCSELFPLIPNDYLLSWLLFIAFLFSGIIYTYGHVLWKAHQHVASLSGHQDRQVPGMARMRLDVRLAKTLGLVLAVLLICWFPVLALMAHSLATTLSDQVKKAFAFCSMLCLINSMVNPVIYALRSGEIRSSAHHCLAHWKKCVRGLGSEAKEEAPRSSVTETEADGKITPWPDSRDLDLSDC
T2 sequence (P21554 whole entry): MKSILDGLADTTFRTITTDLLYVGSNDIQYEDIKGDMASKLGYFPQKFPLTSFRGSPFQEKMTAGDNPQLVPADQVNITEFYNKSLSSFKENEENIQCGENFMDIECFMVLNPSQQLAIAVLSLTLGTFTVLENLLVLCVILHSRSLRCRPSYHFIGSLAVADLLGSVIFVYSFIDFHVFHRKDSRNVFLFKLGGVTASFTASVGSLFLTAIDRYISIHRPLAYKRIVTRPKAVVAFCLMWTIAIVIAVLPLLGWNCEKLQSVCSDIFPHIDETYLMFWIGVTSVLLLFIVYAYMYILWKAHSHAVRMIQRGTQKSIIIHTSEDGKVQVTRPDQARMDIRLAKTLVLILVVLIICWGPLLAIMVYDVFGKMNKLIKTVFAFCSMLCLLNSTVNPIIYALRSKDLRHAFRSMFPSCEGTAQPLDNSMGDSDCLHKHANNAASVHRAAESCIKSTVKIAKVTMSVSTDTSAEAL
T3 sequence (P21554 whole entry): as above

Row | Structure (SMILES) | Ki [1] [nM] | Ki [2] [nM] | EC50 (human CB1 receptor) [nM] | Functional CB1 assays Human CB1 agonism pEC50 (human CB1 receptor)
1 | CCCCCN1N=C(C(=O)NC(C)c2ccccc2)CC1c1ccccc1 (mixture of isomers) [Compound 14, N-(1-Phenyl-ethyl)-1-(n-pentyl)-5-phenyl-4,5-dihydro-(1H)-pyrazole-3-carboxamide] | 251 | 31.6 | 501 | –
2 | CCCCCN1N=C(C(=O)NCc2cccc(C(F)(F)F)c2)CC1c1ccccc1 (racemic) [Compound 22] | 316 | 63.1 | 79.4 | –
3 | CCCCN1N=C(C(=O)NC(C)(C)c2ccccc2)[C@@H](C)[C@@H]1c1ccccc1 (relative stereo) [Compound 37, N-(1-Phenyl-1-methyl-ethyl)-1-(n-butyl)-trans-4-methyl-5-phenyl-4,5-dihydro-(1H)-pyrazole-3-carboxamide] | 100 | 15.8 | 7.94 | –
4 | CCCCCN1N=C(C(=O)NC2C3CC4CC(C3)CC2C4)CC1c1ccccc1 (stereo not drawn) [Compound 1, N-(Adamant-2-yl)-1-(n-pentyl)-5-phenyl-4,5-dihydro-(1H)-pyrazole-3-carboxamide] | 5.01 | 7.94 | – | 8.1
5 | CCCCCN1N=C(C(=O)Nc2cccc3ccccc23)CC1c1ccccc1 (stereo not drawn) [Compound 4, N-(Napht-1-yl)-1-(n-pentyl)-5-phenyl-4,5-dihydro-(1H)-pyrazole-3-carboxamide] | 79.4 | 31.6 | 39.8 | –
6 | CCCCCN1N=C(C(=O)NCc2cccnc2)CC1c1ccccc1 (stereo not drawn) [Compound 7, N-(Pyridin-3-ylmethyl)-1-(n-pentyl)-5-phenyl-4,5-dihydro-(1H)-pyrazole-3-carboxamide] | 501 | 126 | 631 | –
7 | CCCCCN1N=C(C(=O)NC2CC3CCC2C3)CC1c1ccccc1 (stereo not drawn) [Compound 12, N-(Exo-bicyclo[2.2.1]hept-2-yl)-1-(n-pentyl)-5-phenyl-4,5-dihydro-(1H)-pyrazole-3-carboxamide] | 39.8 | 79.4 | 39.8 | –
8 | CCCCCN1N=C(C(=O)NC23CC4CC(CC(C4)C2)C3)CC1c1ccccc1 (stereo not drawn) [Compound 27, N-(Adamantyl)-1-(n-pentyl)-5-phenyl-4,5-dihydro-(1H)-pyrazole-3-carboxamide] | 7.94 | 15.8 | 12.6 | –
9 | CCCCCN1N=C(C(=O)NC(C)(C)c2ccccc2)CC1c1ccccc1 (stereo not drawn) [Compound 28, N-(1-Phenyl-1-methyl-ethyl)-1-(n-pentyl)-5-phenyl-4,5-dihydro-(1H)-pyrazole-3-carboxamide] | 100 | 6.31 | 7.94 | –
10 | CCCCCN1N=C(C(=O)NC(C)(C)c2ccccc2)CC1c1ccccn1 (stereo not drawn) [Compound 32, N-(1-Phenyl-1-methyl-ethyl)-1-(n-pentyl)-5-(pyrid-2-yl)-4,5-dihydro-(1H)-pyrazole-3-carboxamide] | 10 | 7.94 | 39.8 | –
11 | CCCCCN1N=C(C(=O)N[C@H]2C[C@H]3CC[C@]2(C)C3(C)C)CC1c1ccccc1F (stereo partly drawn) [Compound 101, N-[endo-(1R,2S,4R)-1,7,7-trimethylbicyclo[2.2.1]hept-2-yl]-1-(n-pentyl)-5-(2-fluorophenyl)-4,5-dihydro-(1H)-pyrazole-3-carboxamide] | 7.94 | 6.31 | 6.31 | –
12 | CCCCN1N=C(C(=O)NC(C)(C)c2ccccc2)CC1c1ccccc1 (stereo not drawn) [Compound 102, N-(1-phenyl-1-methyl-ethyl)-1-(n-butyl)-5-phenyl-4,5-dihydro-(1H)-pyrazole-3-carboxamide] | 39.8 | 39.8 | 100 | –
13 | CCCCN1N=C(C(=O)N[C@H]2C[C@H]3CC[C@]2(C)C3(C)C)CC1c1ccccc1 (stereo partly drawn) [Compound 103, N-[endo-(1R,2S,4R)-1,7,7-trimethylbicyclo[2.2.1]hept-2-yl]-1-(n-butyl)-5-phenyl-4,5-dihydro-(1H)-pyrazole-3-carboxamide] | 25.1 | 79.4 | 31.6 | –
14 | CCCCCN1N=C(C(=O)N[C@H]2C[C@H]3CC[C@]2(C)C3(C)C)CC1c1ccccc1 (stereo partly drawn) [Compound 104, N-[endo-(1R,2S,4R)-1,7,7-trimethylbicyclo[2.2.1]hept-2-yl]-1-(n-pentyl)-5-phenyl-4,5-dihydro-(1H)-pyrazole-3-carboxamide] | 25.1 | 6.31 | 3.16 | –
15 | CCCCCN1N=C(C(=O)NC(C)(C)c2ccc(F)cc2)CC1c1ccccc1 (stereo not drawn) [Compound 105, N-(1-(4-fluorophenyl)-1-methyl-ethyl)-1-(n-pentyl)-5-phenyl-4,5-dihydro-(1H)-pyrazole-3-carboxamide] | 126 | 15.8 | 1.58 | –
16 | CC(C)(NC(=O)C1=NN(CC2CCCCC2)C(c2ccccc2)C1)c1ccc(F)cc1 (stereo not drawn) [Compound 108, N-[1-(4-fluorophenyl)-1-methyl-ethyl]-1-cyclohexylmethyl-5-phenyl-4,5-dihydro-(1H)-pyrazole-3-carboxamide] | 31.6 | 25.1 | 15.8 | –
17 | CC(C)CN1N=C(C(=O)N[C@H]2C[C@H]3CC[C@]2(C)C3(C)C)CC1c1ccccc1 (stereo partly drawn) [Compound 110, N-[endo-(1R,2S,4R)-1,7,7-trimethylbicyclo[2.2.1]hept-2-yl]-1-isobutyl-5-phenyl-4,5-dihydro-(1H)-pyrazole-3-carboxamide] | 50.1 | 50.1 | 316 | –
